In US4673684A, “Amide derivatives and 5-lipoxygenase inhibitors containing the same as an active ingredient” (Terumo Corporation, priority 1984, dated 1987):

Biological target: T1, 5-lipoxygenase (Mus musculus, UniProt P48999)
T1 construct: The supernatant is used as a 5-lipogenase enzyme solution; endogenous in cells
T1 sequence (P48999 1-674): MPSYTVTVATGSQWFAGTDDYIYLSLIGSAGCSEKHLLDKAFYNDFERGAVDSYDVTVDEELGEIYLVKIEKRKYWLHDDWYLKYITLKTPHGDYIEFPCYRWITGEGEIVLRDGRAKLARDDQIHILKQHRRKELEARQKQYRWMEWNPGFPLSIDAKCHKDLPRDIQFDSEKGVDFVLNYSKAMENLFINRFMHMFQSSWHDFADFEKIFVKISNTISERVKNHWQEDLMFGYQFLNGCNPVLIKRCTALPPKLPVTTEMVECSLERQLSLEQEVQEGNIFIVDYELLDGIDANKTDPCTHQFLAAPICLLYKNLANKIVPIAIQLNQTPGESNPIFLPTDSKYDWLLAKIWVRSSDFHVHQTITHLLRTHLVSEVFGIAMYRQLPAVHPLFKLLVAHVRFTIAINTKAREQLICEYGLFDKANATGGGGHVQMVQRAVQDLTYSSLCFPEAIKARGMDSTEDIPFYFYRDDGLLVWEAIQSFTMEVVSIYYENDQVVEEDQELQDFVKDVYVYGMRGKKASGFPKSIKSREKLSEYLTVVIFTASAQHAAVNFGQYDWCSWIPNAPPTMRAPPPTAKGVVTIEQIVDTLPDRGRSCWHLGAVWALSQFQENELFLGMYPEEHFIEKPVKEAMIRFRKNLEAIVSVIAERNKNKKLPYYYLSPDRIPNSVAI
Assay: 5-Lipoxygenase-inhibiting Activity (decrease in 5-HETE and LTB4 formed from radiolabelled arachidonic acid, enzyme solution from mouse mastcytoma cells P-815)
Assay type: biochemical
Conditions: 5-HETE and LTB4 formation; mouse mastcytoma P-815 enzyme solution; 37° C., 5 min; pH 7.4; with indomethacin; read-out: 50% Inhibitory concentration IC50
Procedure: Mouse mastcytoma cells P-815 are diluted in a culture solution, containing 90% Eagle Basic Medium (manufactured by Gibco Laboratories) to 5×10^4 cells/ml. The diluted solution is cultivated with shaking in air at 37° C. for 48 hours. Then, the culture solution is cooled with ice and centrifuged to collect the cells. The cells are suspended in a phosphate buffer solution at pH 7.4 at a concentration of 2×10^7 cells/ml. The suspension is treated in a ultrasonic cell disintegrater and then centrifuged at 10,000 r.p.m. for 10 min. The supernatant is used as a 5-lipogenase enzyme solution. In test tubes are placed 20 μl of radiolabelled arachidonic acid ([…]), indomethacin (2×10^-8 mol) and an amide derivative to be tested, respectively. To each of the test tubes are added 0.45 ml of a phosphate buffer solution, 0.45 ml of the above-prepared suspension, 0.45 ml of the above-prepared enzyme solution and 0.1 ml of 8 mM CaCl2 (calcium chloride). The mixture is reacted at 37° C. for 5 min. After cooled with ice, 60 μl of 1N-HCl (hydrochloric acid is added to the reaction mixture, which is then extracted with 8 ml of ethyl acetate. The extract is concentrated, and the concentrate is developed by spotting on a silica gel thin layer plate (Merck 60F 254). Measurement of the inhibitory activity is made by collecting fractions corresponding to lipoxygenase products 5-HETE (5(s)-hydroxy-6,8,11,14-eicosatetraenic acid) and LTB4 (leucotriene B4) and determining the radioactivity by a liquid scintillation counter. The lipoxygenase inhibiting activity is determined by decrease in the amount of the above-mentioned 5-lipoxygenaseproducts. […] 50% inhibitory concentration or 30% inhibitory concentration as indicated in the table means the concentration of an amide derivative required for reducing the amount of the above-mentioned 5-lipoxygenase products (5-HETE and LTB4) to 50% or 30% of the amount when the amount of 5-HETE and LTB4 produced in the absenced of the amide derivative is 100%.

IC50	SMILES
60 nM	COc1cc(/C=C/C=C/C(=O)NCCOC(c2ccccc2)c2ccccc2)ccc1O [Example 91, 2-[5-(3-methoxy-4-hydroxy)phenyl-2,4-pentadienoyl]aminoethyl benzhydryl ether]
60 nM	COc1cc(/C=C/C=C/C(=O)NCCCCN2CCN(C(c3ccccc3)c3ccccc3)CC2)ccc1O [Example 87, N-benzhydryl-N'-[4-[5-(3-methoxy-4-hydroxyphenyl)-2,4-pentadienoyl]aminobutyl]piperzine]
600 nM	COc1cc(/C=C/C(=O)N2CCN(CCCOC(c3ccccc3)c3ccccc3)CC2)ccc1O [Example 71, N-[3-(3-methoxy-4-hydroxy)phenyl-2-propenoyl]-(3-benzhydroxypropyl)piperazine]
900 nM	COc1cc(/C=C/C(=O)NCCOC(c2ccccc2)c2ccccc2)ccc1O [Example 72, 2-[3-(3-methoxy-4-hydroxy)phenyl-2-propenoyl]aminoethyl benzhydryl ether]
40 nM	O=C(/C=C/c1ccc(O)c(O)c1)Nc1ccccc1O [Example 11, N-{3-(3,4-dihydroxyphenyl)-2-propenoyl}-o-aminophenol]
1000 nM	Cn1c(=O)c2c(ncn2CCCN2CCN(C(=O)/C=C/C=C/c3ccc(O)c(O)c3)CC2)n(C)c1=O [Example 128, 7-[3-[4-[5-(-dihydroxyphenyl)-2,4-pentadienoyl]piperazi-1-nyl]-1-propyl]theophylline]
6000 nM	COc1cc(/C=C/C(=O)NCc2c(CO)cnc(C)c2O)cc(OC)c1O [Example 50, 4-[3-(3,5-dimethoxy-4-hydroxyphenyl)-2-propenoyl]aminomethyl-3-hydroxy-5-hydroxymethyl-2-methylpyridine]
10 nM	O=C(/C=C/C=C/c1ccc(O)c(O)c1)NCCN1CCN(C(c2ccccc2)c2ccc(Cl)cc2)CC1 (stereo not shown) [Example 28]
9000 nM	COc1cc(/C=C/C=C/C(=O)NCCn2cnc3c2c(=O)n(C)c(=O)n3C)cc(OC)c1OC [Example 95]
30 nM	COc1cc(/C=C/C(=O)NCCCCN2CCN(C(c3ccccc3)c3ccccc3)CC2)cc(OC)c1O [Example 78, N-benzyhdryl-N'-3-(3,5-dimethoxy-4-hydroxy)phenyl-2-propenoylaminobutylpiperazine]
10000 nM	COc1cc(/C=C/C=C/C(=O)NCCN2CCN(C)CC2)ccc1O [Example 40]
40 nM	O=C(/C=C/C=C/c1ccc(O)c(O)c1)NCCCCN1CCN(C(c2ccccc2)c2ccccc2)CC1 [Example 83, N-benzhydryl-N'-5-(3,4-dihydroxyphenyl)-2,4-pentadienoylaminobutylpiperazine]
700 nM	COc1cc(/C=C/C(=O)NCCCOC(c2ccccc2)c2ccccc2)ccc1O [Example 73, 3-[3-[3-methoxy-4-hydroxyphenyl)-2-propenoyl]aminopropyl benzhydryl ether]
10 nM	COc1cc(/C=C/C=C/C(=O)NCCN2CCC(OC(c3ccccc3)c3ccccc3)CC2)cc(OC)c1O [Example 120, 1-[2-[5-(3,5-dimethoxy-4-hydroxyphenyl)-2,4-pentadienoyl]aminoethyl]-4-benzhydroxypiperidine]
600 nM	COc1cc(/C=C/C=C/C(=O)Nc2ccccc2C(=O)O)ccc1O [Example 13, N-5-(3-methoxy-4-hydroxyphenyl)-2,4-pentadienoylanthranilic acid]
2000 nM	Cn1c(=O)c2c(ncn2CCNC(=O)/C=C/c2ccc(O)c(O)c2)n(C)c1=O [Example 65, 7-[2-[3-(3,4-dihydroxy)phenyl-2-propenoyl]aminoethyl]theophilline]
30 nM	O=C(/C=C/C=C/c1ccc(O)c(O)c1)NCCN1CCC(OC(c2ccccc2)c2ccccc2)CC1 [Example 118]
10000 nM	COc1cc(/C=C/C(=O)N2CCN(CCCn3cnc4c3c(=O)n(C)c(=O)n4C)CC2)ccc1O [Example 123]

More lines, now with the values behind:

SMILES	IC50
O=C(/C=C/c1ccc(O)c(O)c1)N1CCN(CCOC(c2ccccc2)c2ccccc2)CC1 [Example 66, N-[3-(3,4-dihydroxyphenyl)-2-propenoyl]-N'-(2-benzhydroxyethyl)]	30 nM
O=C(/C=C/c1ccc(O)c(O)c1)NCCN1CCN(C(c2ccccc2)c2ccccc2)CC1 [Example 9, N-benzhydryl-N'-[2-{3-(3,4-dihydroxyphenyl)-2-propenoyl}-aminoethyl]piperazine]	100 nM
COc1cc(/C=C/C(=O)N2CCN(CCOC(c3ccccc3)c3ccccc3)CC2)ccc1O [Example 70]	600 nM
COc1cc(/C=C/C=C/C(=O)NCCCCNC(=O)/C=C/C=C/c2ccc(O)c(OC)c2)ccc1O [Example 14, N,N'-di{5-(3-methoxy-4-hydroxyphenyl)-2,4-pentadienoyl}-1,4-diaminobutane]	100 nM
COc1cc(/C=C/C=C/C(=O)N2CCN(CCOC(C)(c3ccccc3)c3ccc(Cl)cc3)CC2)ccc1O (stereo not shown) [Example 110, N-[5-(3-methoxy-4-hydroxyphenyl)-2,4-pentadienoyl]-N'-[2-[1-phenyl-1-(p-chlorophenyl)ethoxy]ethyl]piperazine]	10 nM
COc1cc(/C=C/C=C/C(=O)NCCCN2CCN(C(c3ccccc3)c3ccccc3)CC2)cc(OC)c1O [Example 55]	30 nM
O=C(/C=C/C=C/c1ccc2c(c1)OCO2)NCCCN1CCN(C(c2ccccc2)c2ccccc2)CC1 [Example 62, N-[3-[5-(3,4,-methylenedioxyphenyl)-2,4-pentadienoyl]aminopropyl]-N'-benzhydrylpipeerazine]	2000 nM
CC/C=C\C/C=C\C/C=C\C/C=C\C/C=C\C/C=C\CCC(=O)NCCCCNC(=O)/C=C/C=C/c1ccc(O)c(O)c1 [Example 22, N-5-(3,4-dihydroxyphenyl)-2,4-pentadienoyl-N'-4,7,10,13,16,19-docosahexaenoyl-1,4-diaminobutane]	40 nM
O=C(/C=C/c1ccc(O)c(O)c1)NCCCN1CCC(OC(c2ccccc2)c2ccccc2)CC1 [Example 122, 1-[3-[3-(3,4-dihydroxyphenyl)-2-propenoyl]aminopropyl]-4-benzhydroxypiperidine]	10 nM
COc1cc(/C=C/C(=O)Nc2ccccc2C(=O)O)cc(OC)c1O [Example 51, N-[3-(3,5-dimethox-4-hydroxyphenyl)propenoyl]anthranilic acid]	1000 nM
COc1cc(/C=C/C=C/C(=O)NCc2c(CO)cnc(C)c2O)cc(OC)c1O [Example 56, 4-[5-(3,5-dimethoxy-4-hydroxyphenyl)-2,4-pentadineoyl]aminomethyl-3-hydroxy-5-hydroxymethyl-2-methylpyridine]	1000 nM
COc1cc(/C=C/C(=O)NCCN2CCN(C(c3ccccc3)c3ccc(Cl)cc3)CC2)cc(OC)c1O (stereo not shown) [Example 49]	40 nM
COc1cc(/C=C/C=C/C(=O)NCCN2CCN(C(c3ccccc3)c3ccc(Cl)cc3)CC2)ccc1O (stereo not shown) [Example 16, N-(p-chlorobenzhydryl)-N'-[2-{5-(3-methoxy-4-hydroxyphenyl)-2,4-pentadienoyl}aminoethyl]piperazine]	60 nM
CC(=O)OCc1cnc(C)c(O)c1CNC(=O)/C=C/c1ccc(O)c(O)c1 [Example 5, N-caffeoyl-o-acetylpyridoxane]	1000 nM
COc1cc(/C=C/C=C/C(=O)NCCN2CCN(C(c3ccccc3)c3ccccc3)CC2)cc(OC)c1O [Example 53, N-[2-[5-(3,5-dimethoxy-4-hydroxyphenyl)-2,4-pentadienoyl]aminoethyl]-N'-benzhydrylpiperazine]	20 nM
O=C(/C=C/c1ccc(O)c(O)c1)NCCCCN1CCN(C(c2ccccc2)c2ccccc2)CC1 [Example 64, N-[4-[3-,4-(3,4-dihydroxyphenyl)-2-propenoyl]aminobutyl]N'-benzhydrylpiperazine]	30 nM
